Active and inactive are the calls of the source.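 Rule for the calls: active = compounds giving half or more protection of infected cells from virus-caused growth loss, again on retest; inactive = the rest.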 Where a SMILES comes first, the peptide text is derived from it. The star is where a group is joined. Cbz = O=C(OCc1ccccc1)*; NHNH2 = NN*
Test system: CEM cells HIV-1 protection, formazan growth assay
Assay: NCI AIDS Antiviral Assay
Conditions: for IC50: measured here: growth of uninfected CEM cells
Method in brief: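 Human CEM cells, uninfected and HIV-1-infected, exposed to five drug concentrations; growth measured by soluble formazan assay and scored as percent protection from infection, with protecting compounds retested.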

SMILES | EC50 [µM] | IC50 [µM] | outcome
Cc1c(/C=N/NC(=S)Nc2ccc([N+](=O)[O-])cc2)c(=O)n(-c2ccccc2)n1C | > 200 | 166 | 
C/C(=N\NC(N)=O)C(CN1CCCCC1)C(c1ccccc1)c1c(O)c2ccccc2oc1=O (stereo not given) | > 87.1 | 46.8 | 
Cc1ccc(N2CCc3c(C)c(C#N)c4nc5ccccc5n4c32)cc1 | > 200 | > 200 | 
COC1(OC)C=CC2C1C1C=CC2C1(OC)OC (stereo not given) | > 200 | > 200 | 
Cc1cc(O)c2c(O)c3c(O)cc(=O)c(-c4c(=O)cc(O)c5c(O)c6c(O)cc(C)oc6cc45)c3cc2o1 |  |  | inactive
CN1N=C(c2ccncc2)OC1c1ccccc1F (stereo not given) | > 200 | 129 | 
C=C1c2nc3ccccc3n2C=C(c2ccc(Cl)cc2)N1c1ccccc1 | > 200 | 95.5 | 
CCCCCCCCC(C)CCCCCCCCC(=O)OCC(COP(=O)([O-])OCC[N+](C)(C)C)OC(=O)CCCCCCCCC(C)CCCCCCCC (stereo not given) |  |  | inactive
CC(C)SC(C)(NC(=O)C1C(C)(C)CCC1(C)C)C(=O)O (stereo not given) | > 200 | > 200 | 
CC(C)CC(NC(=O)C(CO)NC(=O)OCc1ccccc1)C(=O)NC(Cc1ccc(O)cc1)C(=O)NN (stereo not drawn) (Cbz-Ser-Leu-Tyr-NHNH2; configuration not given here) |  |  | inactive
CCCNC(C#N)c1ccc(C(C#N)NCCC)cc1 (stereo not given) | > 200 | 38.9 | 
CCSc1c2ccccc2nc2c(OC)ccc(OC)c12 |  |  | inactive
CC(=O)O[C@]1(C(C)=O)CC[C@H]2[C@@H]3C[C@H](C)C4=CCCC[C@]4(C)[C@H]3CC[C@@]21C | > 100 | > 100 | 
O=c1[nH][nH]c(=O)c2ncccc12 | > 200 | > 200 | 
Cc1ccc(S(=O)C[C@@]2(C(F)F)NC(=O)NC2=O)cc1 (stereo not given in full) | > 200 | 178 | 
COc1ccc(C(c2ccc3c(c2)OCO3)N2C(=O)CCC2C(=O)O)cc1 (stereo not given) | > 200 | > 200 | 
N[C@H](C(=O)O)[C@@H](Cl)CC(=O)O |  |  | inactive
OC(c1ccc(Cl)cc1)(c1ccc(Cl)cc1)c1cncnc1 |  |  | inactive
C#CCCCCC#Cc1ccccc1C(=O)C=[N+]=[N-] | > 110 | 91.2 | 
CC(=O)Nc1ccc(/C=C/C(=O)c2sc(C(N)=S)nc2C)cc1 | > 75.9 | > 75.9 | 
CCCC1C(=O)Nc2cccc3ncn(c23)C1=O (stereo not given) | > 200 | 186 | 
O=C(Nc1ccc(C2=NCCN2)cc1)c1ccc(C(=O)Nc2ccc(C3=NCCN3)cc2)c(O)c1 | 55 | 91.2 | 

SMILES | EC50 [µM] | IC50 [µM] | outcome
CC(=O)N1OC(C)CC1Nc1ccc(Br)cc1 (stereo not given) | > 200 | 25.1 | 
CC(C)C(=O)/C=C/c1ccc(Br)cc1 |  |  | inactive
NC(N)=NS(N)(=O)=O | > 200 | > 200 | 
O=C1N[C@H]2[C@H](CS[C@H]2CCCCC(=O)N(CCP(c2ccccc2)c2ccccc2)CCP(c2ccccc2)c2ccccc2)N1 | > 14.8 | > 14.8 | 
[N-]=[N+]=C(C(=O)C(=[N+]=[N-])C(=O)c1ccccc1)C(=O)c1ccccc1 | > 112 | > 112 | 
N#Cc1c2n(c3c(=O)n(-c4ccccc4)c(=S)[nH]c13)CCCCC2 | > 151 | > 151 | 
Cc1cc([N+](=O)[O-])c(C)c2c1[nH]c1ccc(Cl)cc12 | > 10 | > 10 | 
CCOC(=O)c1[nH]c2nc(SC)nc(NC)c2c1N | > 200 | 129 | 
N#Cc1c(N)n(-c2cccc(C(=O)O)c2)c(=O)c2cc([N+](=O)[O-])ccc12 | > 200 | > 200 | 
Cc1c(C#N)c2n(c1C)CCN2 | > 1550 | > 1550 | 
COc1ccc(/C=C/C(=O)c2c(-c3ccccc3)nn(C)c(=O)c2N2CCCC2)cc1 | > 67.6 | > 67.6 | 
CC[C@]1(Cc2ccc(OC)c(OC)c2)C=[N+]([O-])O[C@H](OC2CCCC2(c2ccccc2)c2ccccc2)[C@@H]1OC(=O)C(C)(C)C (stereo not given in full) | > 200 | 1.17 | 
CC(C)(C)C(=O)OCC1CCC(n2cnc3c(=O)[nH]c(N)nc32)O1 (stereo not given) | > 15.5 | > 15.5 | 
C=C1C(=O)O[C@@H]2CC(C)C3C(OC(C)=O)CC(OC(C)=O)[C@@]3(C)C[C@H]12 (stereo not given in full) | > 102 | 5.37 | 
Cc1c(O)c(C)c2c(C)cn(C(=O)C(C)(C)C)c2c1C | > 200 | 30.2 | 
CCNC(=O)c1c(O)c2ccccc2[nH]c1=O | > 200 | > 200 | 
COc1ccc(CC2NC(=O)C3CCCN3C2=O)cc1 (stereo not given) | > 200 | > 200 | 
COc1cc2c(cc1OC)C1CNC(C2)c2cc(OC)c(OC)cc21 (stereo not given) | > 200 | > 200 | 
O=C(CC(C(=O)c1cccs1)c1ccsc1)c1ccco1 (stereo not given) | > 200 | 32.4 | 
COc1ccc(C2=C(OC(=O)N(C)C)c3cccn3-c3cc(Cl)ccc3S2)cc1 | > 100 | 87.1 | 
N#C[C@H](c1nc2ccccc2s1)c1nc2ccccc2nc1Cl | > 100 | > 100 | 
O=C(OCCN1CCCC1)c1cc2ccccc2n1-c1ccccc1 | > 200 | 46.8 | 

SMILES | EC50 [µM] | IC50 [µM] | outcome
Cn1cnc([N+](=O)[O-])c1Sc1nc2cccnc2s1 | > 170 | 4.57 | 
CCOC(=O)C1=C(C)CC2C(=O)OC(=O)C2C1(C)C (stereo not given) |  |  | inactive
O=c1[nH]c2c(c3ccccc13)CCc1ccccc1-2 |  |  | inactive
Cc1cc(C)nc(NS(=O)(=O)c2ccc(Nc3c4ccccc4nc4c(C(=O)N5CCN(CCO)CC5)ccc(Cl)c34)cc2)n1 | > 34.7 | > 34.7 | 
COc1ccc2nc3cc(Cl)ccc3c(NC(C)CCCN(C)C)c2n1 (stereo not given) | > 2 | 1.02 | 
NC(CSS(=O)(=O)O)=NCCCCC1CCCCC1 | > 200 | 30.9 | 
COc1ccc(C2(CN(C)C)COc3cc(OC)c(OC)cc3C2=O)cc1OC (stereo not given) |  |  | inactive
COC1=CC=C2CC(=C1)CCC1C2CCC2(C)C(=O)CCC12 (stereo not given) |  |  | inactive
COC(=O)Cc1c(C2=Nc3ccccc3C2(O)CC(=O)OC)[nH]c2ccccc12 (stereo not given) | > 200 | 91.2 | 
OC12CCC3(OC4CCCCO4)c4ccccc4C3C1c1ccccc12 (stereo not given) | > 200 | 89.1 | 
COc1cc([N+](=O)[O-])c(S(=O)(=O)O)cc1-n1nc(-c2ccccc2)n[n+]1-c1cc(S(=O)(=O)[O-])c([N+](=O)[O-])cc1OC | > 100 | > 100 | 
CCOC(=O)C1(O)Nc2ncncc2N(C)C1=O (stereo not given) | > 200 | > 200 | 
CCn1c(O)c(C=Nc2ccccc2)s/c1=N/Nc1nc(-c2ccc(O)c(O)c2)cs1 | > 200 | 14.1 | 
C=CC1(C)CCC2C(C)(C)C(Br)CC[C@]2(C)O1 (stereo not given in full) |  |  | inactive
O=C1CCCC/C1=C\c1ccc(Cl)c(Cl)c1 |  |  | inactive
Cc1nc2c(o1)C(=Nc1ccc(I)cc1)c1ccccc1C2=Nc1ccc(I)cc1 |  |  | inactive
COc1cccc(C2CCCC(C#N)C2=N)c1OC (stereo not given) | > 200 | 126 | 
C[C@]12CC[C@@H]3c4ccc(OC(=O)N(CCCl)CCCl)cc4CC[C@H]3[C@@H]1CC[C@@H]2O | > 200 | 1.7 | 
COC(=O)c1cn2ccc3ccccc3c2c1C(=O)OC | > 200 | > 100 | 
COC(=O)CC1COC(C)(C)O1 (stereo not given) |  |  | inactive
COc1cc(C(C)O)c[n+](CCc2c[nH]c3ccccc23)c1 (stereo not given) | > 234 | > 234 | 
COc1ccc(/C=N/O)cc1OC | > 1380 | 776 | 

SMILES | EC50 [µM] | IC50 [µM] | outcome
O=C1N[C@H]2[C@H](O)[C@H](O)[C@@H](O)[C@H](O)[C@@H]2c2cc3c(c(O)c21)OCO3 |  |  | inactive
COC1(CC[C@@H](C)COC2OC(CO)C(O)C(O)C2O)O[C@H]2C[C@H]3[C@@H]4CC=C5C[C@@H](OC6OC(CO)C(O)C(OC7OC(CO)C(O)C(O)C7O)C6OC6OC(C)C(O)C(O)C6O)CC[C@]5(C)[C@H]4CC[C@]3(C)[C@H]2[C@@H]1C (stereo not given in full) | > 200 | 3.31 | 
CCOC(=O)c1c(Cl)nc2ccccc2c1N=[N+]=[N-] | > 200 | 31.6 | 
COC1/C=C/OC2(C)Oc3c(C)c(O)c4c(O)c(c(/C=N/N5C(C)CN(Cc6cccc(C#N)c6)CC5C)c(O)c4c3C2=O)NC(=O)/C(C)=C\C=C\C(C)C(O)C(C)C(O)C(C)C(OC(C)=O)C1C (stereo not given) | > 200 | 6.46 | 
CCCc1cc(=O)oc2c3c(c4c(c12)OC(C)(C)CC4)O[C@H](C)[C@@H](C)[C@H]3O | > 200 | 10.7 | 
[O]=[W](=[O])([OH])[OH] |  |  | inactive
c1ccc(C2=Nc3ccccc3N=C(c3ccccc3)C2)cc1 | > 17.8 | > 17.8 | 
CC(=O)Nc1ccc(C2=N/C(=C\c3ccc(Cl)cc3)C(=O)O2)cc1 | > 11 | > 11 | 
O=c1ccn(C2CCC3(CO)CC23)c(=O)[nH]1 (stereo not given) | > 50.1 | > 50.1 | 
NC1OC(COC(=O)c2ccccc2)C(O)C(OC(=O)c2ccccc2)C1OC(=O)c1ccccc1 (stereo not given) | > 200 | 0.933 | 
CC(C)(CO)CNc1nc(N)nc(Cl)c1N | > 200 | > 200 | 
CCOC(O)(NC(=O)C(C(F)(F)F)C(F)(F)F)C(F)(F)F (stereo not given) | > 200 | > 200 | 
C=CCCC[P+](c1ccccc1)(c1ccccc1)c1ccccc1 | > 200 | 1.15 | 
CC(=O)OC12C(C)=C(C)C(=O)N1c1ccccc1N2C(C)=O (stereo not given) |  |  | inactive
N=C(N)CCNC(=O)c1c[nH]c2nc(N)[nH]c(=O)c12 | > 347 | > 347 | 
O=S(Cc1ccccc1)/C(=C/NC(=S)N=Nc1c(O)[nH]c2ccccc12)c1ccccc1 (stereo not given) | 58.9 | 178 | 
COc1cc(/C=C2\NC(=O)N(/C=C3\C(=O)Oc4ccccc4C3=O)C2=O)ccc1O | > 200 | > 200 | 
CC(C)(C)Nc1noc(=O)n1C(C)(C)C | > 100 | > 100 | 
CCOC(=O)CCC(NC(=O)c1ccc(CNc2nc3ccccc3nc2C(=O)OCC)cc1)C(=O)OCC (stereo not given) | > 200 | > 200 | 
Nc1nnc2c(-c3ccccc3)[nH]nc2n1 |  |  | inactive
C[C@@H]1CN(C(=O)CCOS(C)(=O)=O)[C@@H](C)CN1C(=O)CCOS(C)(=O)=O | > 200 | 67.6 | 
